Measurements taken from patent publication US20220119856A1, “STALL SIDE METHOD FOR THE DETECTION OF BACTERIA IN DAIRY CATTLE” (TRANSFORMATIVE TECHNOLOGIES, priority 2019, published 2022).

Key:
[1] = test system: S. aureus; assay: Rupture of gram-positive bacteria by lytic enzyme, read by bioluminescence of released ATP; assay type: cell-based; conditions: 0.05% enzyme, PBS buffer, mastitic milk or healthy milk
Excerpt: As the goal of this invention is to target and detect only gram positive organisms active in mastitis such as: S. aureus, Coagulase negative staphylococci (CoNS) and S. uberi, it is important to identify lytic enzymes that can effectively rupture the cell walls of these pathogens in the presence of raw Bovine milk. […] The action against specific gram-positive organisms of these enzymes has been verified in PBS buffered solutions, but their ability to rupture bacteria had to be verified to in raw milk. The first candidates tested in for their activity in Bovine milk were Lysostaphin (Lyso) which attacks S. aureus, and Streptococcal phage lytic enzyme (PlyC) which attacks Streptococcus uberis. In all reactions, a concentration a of 0.05% of the phage lytic enzyme was used to evaluate the time required to rupture the cell wall of gram-positive bacteria in raw Bovine milk, as well as in a Phosphate-buffered saline (PBS) solution. It was determined that that in one hour, PlyC can eradicate up to 6 logs of S. uberis in PBS buffer, and either mastitic milk or healthy milk. The degree of lysing was determined by bioluminescence produced by the ATP released from the ruptured cells as described earlier. We then lowered the bacterial load to 2 logs of S. uberis in PBS buffer, and either mastitic milk or healthy milk, and it was determined that the PlyC can eradicate this bacterial load in 3 minutes or less. Similar experiments were performed with Lysostaphin (Lyso), which attacks S. aureus, and we determined we that can eradicate up to 6 logs of S. aureus in PBS buffer, and either mastitic milk or healthy milk in under 25 minutes. We then lowered the bacterial load to 2 logs of S. aureus in PBS buffer and either mastitic milk or healthy milk, and it was determined that the Lyso can eradicate this bacterial load in 2 minutes or less.

[2] = target: T1, Apyrase (Solanum tuberosum, UniProt P80595); assay: Inactivation of excess Apyrase in raw Bovine milk by surfactants, signal after ATP standard added; assay type: biochemical; conditions: 50 ul raw Bovine milk pretreated with 284 mU Apyrase
T1 construct: purchased Sigma Chemical A6535
T1 sequence (P80595 1-454): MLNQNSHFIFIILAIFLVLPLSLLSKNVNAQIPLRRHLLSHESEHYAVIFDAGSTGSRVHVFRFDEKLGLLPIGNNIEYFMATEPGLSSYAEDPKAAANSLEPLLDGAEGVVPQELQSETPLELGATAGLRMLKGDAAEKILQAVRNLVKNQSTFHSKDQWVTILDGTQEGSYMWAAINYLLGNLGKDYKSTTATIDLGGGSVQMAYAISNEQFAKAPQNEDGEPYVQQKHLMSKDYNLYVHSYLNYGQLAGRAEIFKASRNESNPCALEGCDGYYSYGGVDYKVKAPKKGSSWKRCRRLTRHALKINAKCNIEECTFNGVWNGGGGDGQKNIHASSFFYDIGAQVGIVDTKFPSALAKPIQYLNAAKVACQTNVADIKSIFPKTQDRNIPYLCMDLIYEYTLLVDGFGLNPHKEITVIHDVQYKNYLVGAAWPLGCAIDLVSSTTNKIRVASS
Description: It is important to eliminate any excess Apyrase that may remain in the raw Bovine milk sample after treatment with the Apyrase enzyme that was used to eliminate endogenous ATP in Example #4. […] Among the reagents evaluated were: dimethyldioctadecylammonium chloride, laureltrimethylammonium bromide (DTAB), benzyldimethyldodecylammonium bromide (BDDABr), and cetyl trimethylammonium bromide (CTAB). The experiment was performed by adding between 0.02% and 1% of the selected surfactant to 50 ul of raw Bovine milk that had treated previously been treated with 284 mU of Apyrase as detailed in example #4. The levels of ATP were confirmed by adding 50 uL of Promega luciferin-luciferase reagent (containing 25 mM HEPES buffer (pH 7.5), 40 pg luciferase, 100 pM luciferin, and 10 mM MgSO4). As expected the readings determined on the Hygiena Ensure Luminometer were too low to measure, since all of the ATP had already been eliminated by Apyrase treatment in Example #4. After the initially readings were determined as described above, 10 uL of a 10^−8M solution of ATP standard (Sigma Chemical) was added to the samples above and the bioluminescent signal was determined on a Hygiena Ensure Luminometer. As expected a signal was now detected, since all of the excess Apyrase added earlier had been eliminated by the surfactants being evaluated. The best results were seen when the detergents benzyldimethyldodecylammonium bromide (BDDABr) at 0.05% concentration and, laureltrimethylammonium bromide (DTAB) at 0.5% and 1.0% concentrations were added to the samples.

[3] = test system: somatic cells present in raw Bovine milk; assay: Rupture of somatic cells in raw Bovine milk, ATP released; assay type: cell-based; conditions: in under 90 seconds; raw Bovine milk with predetermined somatic cell counts
Description: A number of surfactants (detergents) were evaluated for their ability to rupture the somatic cells present in raw Bovine milk samples. Among the reagents tested were Triton X100 (Sigma Chemical) and Neonol AF9-10 (Nonoxynol-9) (Elarum Petrochemicals). Determinations using both surfactants were performed on raw Bovine milk samples in which somatic cell counts were predetermined. […] The number of somatic cell ruptured was determined by quantifying the ATP released in 50 uL samples of treated raw Bovine milk (as a function of time) using 50 uL of Promega luciferin-luciferase reagent (containing 25 mM HEPES buffer (pH 7.5), 40 pg luciferase, 100 pM luciferin, and 10 mM MgSO4). Bioluminescent measurements were performed using a Hygiena Ensure luminometer and all readings were blank corrected.

[4] = Elimination of endogenous ATP in raw Bovine milk, luciferin-luciferase readout; assay type: biochemical
Description: All assays were performed using 50 uL of raw Bovine milk and 50 uL of Promega luciferin-luciferase reagent (containing 25 mM HEPES buffer (pH 7.5), 40 pg luciferase, 100 pM luciferin, and 10mM MgSO4). Bioluminescent measurements were determined using the Hygiena Ensure System. The test was performed in both 100% and 50% raw Bovine milk. […] At a concentration of 284 mUnits the apyrase is able to deplete the endogenous ATP in 50 μL of raw milk in less than 30 seconds. The diminution of ATP was so fast with higher concentrations of Apyrase (diluting the enzyme) resulting in the inability to take meaningful reading, since all of the ATP was gone within 10 seconds. There are numerous commercially available ATP-degrading enzymes that can be tested for this purpose, but in our system, the Apyrase enzyme appears more than sufficient.

[5] = Sigma Chemical A6535, vendor specification; cited from earlier work

Compound: Lysostaphin: Lysostaphin (Lyso) which attacks S. aureus
- time to eradicate bacterial load of 2 logs of S. aureus [1]: ≤ 2 minutes
- time to eradicate up to 6 logs of S. aureus [1]: under 25 minutes
- bacterial load of S. aureus eradicated ([1]; in under 25 minutes): up to 6 logs

Compound: CCCCCCCCCCCC[N+](C)(C)Cc1ccccc1.[Br-] [BDDABr, benzyldimethyldodecylammonium bromide]
- inactivation of Apyrase (in words) ([2]; 0.05% surfactant): best results

Compound: CCCCCCCCCCCC[N+](C)(C)C.[Br-] [DTAB, laureltrimethylammonium bromide]
- inactivation of Apyrase (in words) ([2]; 0.5% surfactant): best results
- inactivation of Apyrase (in words) ([2]; 1.0% surfactant): best results

Compound: Nonoxynol-9 [Neonol-9-10]
- ability to rupture somatic cells (in words) [3]: superior to the Triton X100

Compound: Apyrase
- elimination of endogenous ATP (in words) ([4]; 100% and 50% raw Bovine milk): works well
- time to deplete the endogenous ATP ([4]; 284 mUnits apyrase, 50 μL of raw milk): less than 30 seconds
- time until all of the ATP was gone ([4]; higher concentrations of Apyrase): ≤ 10 s
- ATPase activity of the enzyme preparation [5]: ≥ 200 units/mg protein
